These results are taken from US20240368127A1, “HSD17B13 INHIBITORS AND USES THEREOF” (FL2022-001, Inc., priority 2021, published 2024).

Where only a bound is given, the exact number is not on record here.

In the experiment the target is T1, Recombinant human HSD17B13 enzyme (Homo sapiens, UniProt Q7Z5P4).
T1 sequence (Q7Z5P4 20-300): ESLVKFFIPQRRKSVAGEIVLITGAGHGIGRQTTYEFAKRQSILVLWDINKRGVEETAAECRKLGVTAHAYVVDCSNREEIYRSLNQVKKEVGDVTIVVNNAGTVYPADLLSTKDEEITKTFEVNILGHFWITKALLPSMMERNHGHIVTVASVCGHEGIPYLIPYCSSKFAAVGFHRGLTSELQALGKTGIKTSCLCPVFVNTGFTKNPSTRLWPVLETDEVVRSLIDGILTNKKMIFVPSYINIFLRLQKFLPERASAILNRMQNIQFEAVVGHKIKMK
Description: HSD17b13 NAD(P)H-Glo biochemical assay. As to conditions: 50 μM estradiol, 1 mM NAD+, 37° C. for 3 hours; read-out: HSD17β13 IC50. On the procedure: Example B-1: HSD17b13 NAD (P) H-Glo Biochemical Assay
Recombinant human HSD17B13 enzyme. Substrate: estradiol (Sigma β-Estradiol E8875), 100 mM in DMSO. Cofactor: NAD+ Grade I free acid (Sigma 10127965001), 20 mM in H2O. Assay buffer final concentration: 20 mM Tris pH7.4 with 0.002% Tween-20 and 0.02% BSA. Assay performed in 384 well solid bottom plate (Corning 3570). Enzymatic activity detected by NAD (P) H-Glo™ Detection System (Promega G9062).
Inhibitor compounds were serially diluted in DMSO and then further diluted in assay buffer to a 10× concentration consisting of 1% DMSO.
HSD17b13 enzyme was diluted in 1× assay buffer to the desired enzyme concentration based on the specific activity of the enzyme lot. 20 μL of diluted enzyme was added to each well along with 2.5 μL of 10× inhibitor solution. Assay plate was incubated at RT for 20 minutes, and then 2.5 μL of a 10× substrate/cofactor mix was added to each well for a final concentration of 50 μM estradiol and 1 mM NAD+. Assay plate was incubated at 37° C. for 3 hours. NAD (P) H-Glo™ Detection System reagents were prepared according to manufacturer's specifications, and 25 μL was added to each well. After incubating for 1 hour at RT, luminescence was measured.

Turning to `CCn1nc(-c2cc(C(F)(F)F)c(F)c(O)c2F)c2cnc(N3CCOC[C@H]3Cc3ccccc3)nc21` [Compound 15.12, (R)-3-(6-(3-Benzylmorpholino)-1-ethyl-1H-pyrazolo[3,4-d]pyrimidin-3-yl)-2,6-difluoro-5-(trifluoromethyl)phenol], the IC50 (commonly the concentration that inhibits the measured activity by half) is not above 100 nM.
With `CS(=O)(=O)N1CCN(c2ccc3c(c2)c(Cl)nn3-c2cc(C(F)(F)F)c(F)c(O)c2F)[C@H](Cc2ccccc2)C1` [Compound 2.06, (R)-3-(5-(2-Benzyl-4-(methylsulfonyl)piperazin-1-yl)-3-chloro-1H-indazol-1-yl)-2,6-difluoro-5-(trifluoromethyl)phenol] the figure was not above 100 nM.
On to `Cc1nn(-c2cc(C(F)(F)F)c(Cl)c(O)c2F)c2ccc(N3CCN(S(C)(=O)=O)C[C@H]3Cc3ccccc3)cc12` [Compound 2.27, (R)-3-(5-(2-Benzyl-4-(methylsulfonyl)piperazin-1-yl)-3-methyl-1H-indazol-1-yl)-6-chloro-2-fluoro-5-(trifluoromethyl)phenol], for which the IC50 is not above 100 nM.
With `COCC(=O)N1CCN(c2ncc3c(-c4cc(C(F)(F)F)c(F)c(O)c4F)nn(C)c3n2)[C@H](Cc2ccccc2)C1` [Compound 6.03, (R)-1-(3-Benzyl-4-(3-(2,4-difluoro-3-hydroxy-5-(trifluoromethyl)phenyl)-1-methyl-1H-pyrazolo[3,4-d]pyrimidin-6-yl)piperazin-1-yl)-2-methoxyethan-1-one] the figure was not above 100 nM.
With `CS(=O)(=O)N1CCN(c2ncc3c(n2)c(Cl)nn3-c2cc(C(F)(F)F)c(F)c(O)c2F)[C@H](Cc2ccccc2)C1` [Compound 2.18, (R)-3-(5-(2-Benzyl-4-(methylsulfonyl)piperazin-1-yl)-3-chloro-1H-pyrazolo[4,3-d]pyrimidin-1-yl)-2,6-difluoro-5-(trifluoromethyl)phenol] the figure was not above 100 nM; with `Cn1nc(-c2cc(C(F)(F)F)c(F)c(O)c2F)c2cnc(N3CCOCC3CC3CCC3)nc21` (stereo not shown) [Compound 5.10, 3-(6-(3-(Cyclobutylmethyl)morpholino)-1-methyl-1H-pyrazolo[3,4-d]pyrimidin-3-yl)-2,6-difluoro-5-(trifluoromethyl)phenol], not above 100 nM; with `Cn1nc(-c2cc(C(F)(F)F)c(F)c(O)c2F)c2cnc(N3CCO[C@@H](Cc4cccnc4)C3)nc21` [Compound 12.01, (S)-2,6-Difluoro-3-(1-methyl-6-(2-(pyridin-3-ylmethyl)morpholino)-1H-pyrazolo[3,4-d]pyrimidin-3-yl)-5-(trifluoromethyl)phenol], not above 100 nM.
On to `CNc1nn(-c2cc(C(F)(F)F)c(F)c(O)c2F)c2ccc(N3CCN(S(C)(=O)=O)C[C@H]3Cc3ccccc3)cc12` [Compound 2.14, (R)-3-(5-(2-Benzyl-4-(methylsulfonyl)piperazin-1-yl)-3-(methylamino)-1H-indazol-1-yl)-2,6-difluoro-5-(trifluoromethyl)phenol], for which the IC50 is not above 100 nM.
For the compound `Oc1c(F)cc2nnn(-c3ccc(N4CCCC(Cc5ccccc5)CC4)cc3)c2c1F` (stereo not shown) [Compound 1.09, 1-(4-(4-Benzylazepan-1-yl)phenyl)-5,7-difluoro-1H-benzo[d][1,2,3]triazol-6-ol], the IC50 was not above 100 nM.
For `Cn1nc(-c2cc(C(F)(F)F)c(F)c(O)c2F)c2cnc(N3CCC3Cc3ccccc3)nc21` (stereo not shown) [Compound 5.19, 3-(6-(2-Benzylazetidin-1-yl)-1-methyl-1H-pyrazolo[3,4-d]pyrimidin-3-yl)-2,6-difluoro-5-(trifluoromethyl)phenol] the value was not above 100 nM; for `Cn1nc(-c2cccc(O)c2)c2cnc(N3CCN(S(C)(=O)=O)C[C@H]3Cc3ccccc3)nc21` [Compound 11.11, (R)-3-(6-(2-Benzyl-4-(methylsulfonyl)piperazin-1-yl)-1-methyl-1H-pyrazolo[3,4-d]pyrimidin-3-yl)phenol], 1000 to 30000 nM; for `Cc1nn(-c2cc(O)cc(C(F)(F)F)c2)c2ccc(N3CCN(S(C)(=O)=O)C[C@H]3Cc3ccccc3)cc12` [Compound 2.26, (R)-3-(5-(2-Benzyl-4-(methylsulfonyl)piperazin-1-yl)-3-methyl-1H-indazol-1-yl)-5-(trifluoromethyl)phenol], 100 to 1000 nM.
`Oc1c(F)c(-c2n[nH]c3nc(N4CCOC[C@H]4Cc4ccccc4)ncc23)cc(C(F)(F)F)c1F` [Compound 5.20, (R)-3-(6-(3-Benzylmorpholino)-1H-pyrazolo[3,4-d]pyrimidin-3-yl)-2,6-difluoro-5-(trifluoromethyl)phenol]: the IC50 is not above 100 nM.
With `Cc1ccc(C[C@@H]2COCCN2c2ncc3c(-c4cc(C(F)(F)F)c(F)c(O)c4F)nn(C)c3n2)cc1` [Compound 5.21, (R)-2,6-Difluoro-3-(1-methyl-6-(3-(4-methylbenzyl)morpholino)-1H-pyrazolo[3,4-d]pyrimidin-3-yl)-5-(trifluoromethyl)phenol] the figure was not above 100 nM; with `Cc1nn(-c2cc(C(F)(F)F)c(F)c(O)c2F)c2cnc(N3CCN(S(C)(=O)=O)C[C@H]3Cc3ccccc3)cc12` [Compound 2.02, (R)-3-(5-(2-Benzyl-4-(methylsulfonyl)piperazin-1-yl)-3-methyl-1H-pyrazolo[3,4-c]pyridin-1-yl)-2,6-difluoro-5-(trifluoromethyl)phenol], not above 100 nM; with `Cn1nc(-c2cc(C(F)(F)F)c(F)c(O)c2F)c2cnc(N3CCOCC3CC3CC3)nc21` (stereo not shown) [Compound 5.01, 3-(6-(3-(Cyclopropylmethyl)morpholino)-1-methyl-1H-pyrazolo[3,4-d]pyrimidin-3-yl)-2,6-difluoro-5-(trifluoromethyl)phenol], not above 100 nM.
For the compound `Cn1nc(-c2cc(C(F)(F)F)c(F)c(O)c2F)c2cnc(N3CCOCC3CC3CCCCC3)nc21` (stereo not shown) [Compound 15.03, 3-(6-(3-(Cyclohexylmethyl)morpholino)-1-methyl-1H-pyrazolo[3,4-d]pyrimidin-3-yl)-2,6-difluoro-5-(trifluoromethyl)phenol], the IC50 is not above 100 nM.
For the compound `Cc1ccc([C@@H](O)[C@H]2CN(c3ncc4c(-c5cc(C(F)(F)F)c(F)c(O)c5F)nn(C)c4n3)CCO2)cc1` [Compound 13, 2,6-Difluoro-3-(6-((R)-2-((R)-hydroxy(p-tolyl)methyl)morpholino)-1-methyl-1H-pyrazolo[3,4-d]pyrimidin-3-yl)-5-(trifluoromethyl)phenol], the IC50 was not above 100 nM.
As to `CC(C)NC(=O)[C@@H]1COCCN1c1ncc2c(-c3cc(C(F)(F)F)c(F)c(O)c3F)nn(C)c2n1` [Compound 11.24, (S)-4-(3-(2,4-Difluoro-3-hydroxy-5-(trifluoromethyl)phenyl)-1-methyl-1H-pyrazolo[3,4-d]pyrimidin-6-yl)-N-isopropylmorpholine-3-carboxamide], the IC50 is not above 100 nM.
Turning to `Cn1nc(-c2cc(C(F)(F)F)c(F)c(O)c2F)c2cnc(N3CCOC[C@H]3CC3CCCCC3)nc21` (single isomer, unassigned) [Compound 15.04], the IC50 was not above 100 nM.
With `Cn1nc(-c2cc(Cl)c(F)c(O)c2F)c2cnc(N3CCN(S(C)(=O)=O)C[C@H]3Cc3ccccc3)nc21` [Compound 11.12, (R)-3-(6-(2-Benzyl-4-(methylsulfonyl)piperazin-1-yl)-1-methyl-1H-pyrazolo[3,4-d]pyrimidin-3-yl)-5-chloro-2,6-difluorophenol] the figure was not above 100 nM; with `Cn1nc(-c2cc(C(F)(F)F)c(F)c(O)c2F)c2cnc(N3CCOCC3Cc3ccncc3)nc21` (stereo not shown) [Compound 15.08, 2,6-Difluoro-3-(1-methyl-6-(3-(pyridin-4-ylmethyl)morpholino)-1H-pyrazolo[3,4-d]pyrimidin-3-yl)-5-(trifluoromethyl)phenol], not above 100 nM.
Regarding `CCC(=O)N1CCN(c2ncc3c(-c4cc(C(F)(F)F)c(F)c(O)c4F)nn(C)c3n2)[C@H](Cc2ccccc2)C1` [Compound 6.09, (R)-1-(3-Benzyl-4-(3-(2,4-difluoro-3-hydroxy-5-(trifluoromethyl)phenyl)-1-methyl-1H-pyrazolo[3,4-d]pyrimidin-6-yl)piperazin-1-yl)propan-1-one], the IC50 is not above 100 nM.
For `Cc1nn(-c2cc(C(F)(F)F)c(F)c(O)c2F)c2cc(F)c(N3CCN(S(C)(=O)=O)C[C@H]3Cc3ccccc3)nc12` [Compound 2.33, (R)-3-(5-(2-Benzyl-4-(methylsulfonyl)piperazin-1-yl)-6-fluoro-3-methyl-1H-pyrazolo[4,3-b]pyridin-1-yl)-2,6-difluoro-5-(trifluoromethyl)phenol] the value was not above 100 nM; for `Cc1cccc(C[C@H]2CN(c3ncc4c(-c5cc(C(F)(F)F)c(F)c(O)c5F)nn(C)c4n3)CCO2)c1` [Compound 12.07, (S)-2,6-Difluoro-3-(1-methyl-6-(2-(3-methylbenzyl)morpholin)-1H-pyrazolo[3,4-d]pyrimidin-3-yl)-5-(trifluoromethyl)phenol], not above 100 nM.
